Experiment: Anti-solvent addition crystallisation at 60° C., observations and form fate by XRPD
Format: physicochemical
Conditions: for Crystalline Form fate by XRPD: Addition at 60° C.
Method: The equilibration of Form A in a range of solvents with thermal modulation indicated a range of suitable solvents and anti-solvents. Consequently, Form A was dissolved in a range of four solvents at an elevated temperature, clarified and charged with anti-solvent at the elevated temperature to assess the propensity of the compound towards anti-solvent-driven crystallisation.
2-(2,6-dichlorophenyl)-5-[4-(1,1-dioxo-1,4-thiazinane-4-carbonyl)anilino]oxazole-4-carboxamide Form A, 4×150-152 mg, was weighed into four crystallisation tubes. Four different solvents (see Table 8) were then charged to the solids and the resulting mixtures heated to 60° C. Where suspensions persisted, additional solvent was charged to achieve dissolution. Upon dissolution of the four mixtures, the solutions were clarified and aliquots containing ca. 30 mg of the compound were charged to four crystallisation tubes.
To each of the four aliquots was charged an anti-solvent (see Table 8), ca. 5 vol., at 60° C. and immediate observations were made. Observations were made after equilibration for 1 hour before additional anti-solvent, 5 vol., was charged to all mixtures. Where suspensions or immiscible mixtures had formed, no further anti-solvent was charged. To all solutions and hazes, additional anti-solvent up to 20 vol. total charge was added.
The mixtures were equilibrated at 60° C. for another hour before cooling to 25° C. over ca. 3 hours and equilibrated for ca. 14½ hours. […] Upon isolation, all solids were dried in vacuo under air for ca. 1 hour and then dried in the oven in vacuo at 45° C. for 70 hours.

NC(=O)c1nc(-c2c(Cl)cccc2Cl)oc1Nc1ccc(C(=O)N2CCS(=O)(=O)CC2)cc1 [Form A, 2-(2,6-dichlorophenyl)-5-[4-(1,1-dioxo-1,4-thiazinane-4-carbonyl)anilino]oxazole-4-carboxamide]
Form B: Crystalline Form fate by XRPD (Nitromethane 50 vol., Benzotrifluoride) | Crystalline Form fate by XRPD (Nitromethane 50 vol., Heptane) | Crystalline Form fate by XRPD (THF 25 vol., 2-Chlorobutane) | Crystalline Form fate by XRPD (THF 25 vol., Benzotrifluoride) | Crystalline Form fate by XRPD (THF 25 vol., Heptane)
Gummy: Observation on outcome (ID A2, THF/water, 4:1 10 vol., Heptane, 25° C., 20 vol, 19 Hrs)
Immiscible: Observation on outcome (ID C1, Nitromethane 50 vol., Cyclohexane, 60° C., 5 vol. anti-solvent, 1 Hr) | Observation on outcome (ID C1, Nitromethane 50 vol., Cyclohexane, 60° C., 5 vol. anti-solvent, Immediate) | Observation on outcome (ID C1, Nitromethane 50 vol., Cyclohexane, 60° C., 10 vol. anti-solvent) | Observation on outcome (ID D1, MeCN/water, 4:1 55 vol., Cyclohexane, 25° C., 20 vol, 19 Hrs) | Observation on outcome (ID D1, MeCN/water, 4:1 55 vol., Cyclohexane, 60° C., 5 vol. anti-solvent, 1 Hr) | Observation on outcome (ID D1, MeCN/water, 4:1 55 vol., Cyclohexane, 60° C., 5 vol. anti-solvent, Immediate) | Observation on outcome (ID D1, MeCN/water, 4:1 55 vol., Cyclohexane, 60° C., 10 vol. anti-solvent) | Observation on outcome (ID D2, MeCN/water, 4:1 55 vol., Heptane, 60° C., 5 vol. anti-solvent, 1 Hr) | Observation on outcome (ID D2, MeCN/water, 4:1 55 vol., Heptane, 60° C., 5 vol. anti-solvent, Immediate) | Observation on outcome (ID D2, MeCN/water, 4:1 55 vol., Heptane, 60° C., 10 vol. anti-solvent) | Observation on outcome (ID D3, MeCN/water, 4:1 55 vol., Benzotrifluoride, 60° C., 15 vol. anti-solvent) | Observation on outcome (ID D3, MeCN/water, 4:1 55 vol., Benzotrifluoride, 60° C., 20 vol. anti-solvent)
Gum: Observation on outcome (ID A1, THF/water, 4:1 10 vol., Cyclohexane, 60° C., 5 vol. anti-solvent, Immediate) | Observation on outcome (ID A2, THF/water, 4:1 10 vol., Heptane, 60° C., 5 vol. anti-solvent, Immediate)
Haze: Observation on outcome (ID D3, MeCN/water, 4:1 55 vol., Benzotrifluoride, 60° C., 10 vol. anti-solvent) | Observation on outcome (ID D4, MeCN/water, 4:1 55 vol., 2-Chlorobutane, 60° C., 10 vol. anti-solvent) | Observation on outcome (ID D4, MeCN/water, 4:1 55 vol., 2-Chlorobutane, 60° C., 15 vol. anti-solvent) | Observation on outcome (ID D4, MeCN/water, 4:1 55 vol., 2-Chlorobutane, 60° C., 20 vol. anti-solvent)
Susp.: Observation on outcome (ID A1, THF/water, 4:1 10 vol., Cyclohexane, 25° C., 20 vol, 19 Hrs) | Observation on outcome (ID A1, THF/water, 4:1 10 vol., Cyclohexane, 60° C., 5 vol. anti-solvent, 1 Hr) | Observation on outcome (ID A1, THF/water, 4:1 10 vol., Cyclohexane, 60° C., 10 vol. anti-solvent) | Observation on outcome (ID A2, THF/water, 4:1 10 vol., Heptane, 60° C., 5 vol. anti-solvent, 1 Hr) | Observation on outcome (ID A2, THF/water, 4:1 10 vol., Heptane, 60° C., 10 vol. anti-solvent) | Observation on outcome (ID A3, THF/water, 4:1 10 vol., Benzotrifluoride, 25° C., 20 vol, 19 Hrs) | Observation on outcome (ID A3, THF/water, 4:1 10 vol., Benzotrifluoride, 60° C., 5 vol. anti-solvent, 1 Hr) | Observation on outcome (ID A3, THF/water, 4:1 10 vol., Benzotrifluoride, 60° C., 5 vol. anti-solvent, Immediate) | Observation on outcome (ID A3, THF/water, 4:1 10 vol., Benzotrifluoride, 60° C., 10 vol. anti-solvent) | Observation on outcome (ID A4, THF/water, 4:1 10 vol., 2-Chlorobutane, 25° C., 20 vol, 19 Hrs) | Observation on outcome (ID A4, THF/water, 4:1 10 vol., 2-Chlorobutane, 60° C., 5 vol. anti-solvent, 1 Hr) | Observation on outcome (ID A4, THF/water, 4:1 10 vol., 2-Chlorobutane, 60° C., 5 vol. anti-solvent, Immediate) | Observation on outcome (ID A4, THF/water, 4:1 10 vol., 2-Chlorobutane, 60° C., 10 vol. anti-solvent) | Observation on outcome (ID B1, THF 25 vol., Cyclohexane, 25° C., 20 vol, 19 Hrs) | Observation on outcome (ID B1, THF 25 vol., Cyclohexane, 60° C., 5 vol. anti-solvent, 1 Hr) | Observation on outcome (ID B1, THF 25 vol., Cyclohexane, 60° C., 10 vol. anti-solvent) | Observation on outcome (ID B2, THF 25 vol., Heptane, 25° C., 20 vol, 19 Hrs) | Observation on outcome (ID B2, THF 25 vol., Heptane, 60° C., 5 vol. anti-solvent, 1 Hr) | Observation on outcome (ID B2, THF 25 vol., Heptane, 60° C., 10 vol. anti-solvent) | Observation on outcome (ID B3, THF 25 vol., Benzotrifluoride, 25° C., 20 vol, 19 Hrs) | Observation on outcome (ID B3, THF 25 vol., Benzotrifluoride, 60° C., 5 vol. anti-solvent, 1 Hr) | Observation on outcome (ID B3, THF 25 vol., Benzotrifluoride, 60° C., 10 vol. anti-solvent) | Observation on outcome (ID B4, THF 25 vol., 2-Chlorobutane, 25° C., 20 vol, 19 Hrs) | Observation on outcome (ID B4, THF 25 vol., 2-Chlorobutane, 60° C., 5 vol. anti-solvent, 1 Hr) | Observation on outcome (ID B4, THF 25 vol., 2-Chlorobutane, 60° C., 10 vol. anti-solvent) | Observation on outcome (ID C3, Nitromethane 50 vol., Benzotrifluoride, 25° C., 20 vol, 19 Hrs) | Observation on outcome (ID C4, Nitromethane 50 vol., 2-Chlorobutane, 25° C., 20 vol, 19 Hrs) | Observation on outcome (ID D3, MeCN/water, 4:1 55 vol., Benzotrifluoride, 25° C., 20 vol, 19 Hrs)
Gum→Soln.: Observation on outcome (ID B1, THF 25 vol., Cyclohexane, 60° C., 5 vol. anti-solvent, Immediate) | Observation on outcome (ID B2, THF 25 vol., Heptane, 60° C., 5 vol. anti-solvent, Immediate)
Bi. Susp.: Observation on outcome (ID C1, Nitromethane 50 vol., Cyclohexane, 25° C., 20 vol, 19 Hrs) | Observation on outcome (ID C2, Nitromethane 50 vol., Heptane, 25° C., 20 vol, 19 Hrs) | Observation on outcome (ID D2, MeCN/water, 4:1 55 vol., Heptane, 25° C., 20 vol, 19 Hrs) | Observation on outcome (ID D4, MeCN/water, 4:1 55 vol., 2-Chlorobutane, 25° C., 20 vol, 19 Hrs)
Form C +: Crystalline Form fate by XRPD (Nitromethane 50 vol., 2-Chlorobutane)
Soln.: Observation on outcome (ID B3, THF 25 vol., Benzotrifluoride, 60° C., 5 vol. anti-solvent, Immediate) | Observation on outcome (ID B4, THF 25 vol., 2-Chlorobutane, 60° C., 5 vol. anti-solvent, Immediate) | Observation on outcome (ID C2, Nitromethane 50 vol., Heptane, 60° C., 5 vol. anti-solvent, 1 Hr) | Observation on outcome (ID C2, Nitromethane 50 vol., Heptane, 60° C., 5 vol. anti-solvent, Immediate) | Observation on outcome (ID C2, Nitromethane 50 vol., Heptane, 60° C., 10 vol. anti-solvent) | Observation on outcome (ID C2, Nitromethane 50 vol., Heptane, 60° C., 15 vol. anti-solvent) | Observation on outcome (ID C2, Nitromethane 50 vol., Heptane, 60° C., 20 vol. anti-solvent) | Observation on outcome (ID C3, Nitromethane 50 vol., Benzotrifluoride, 60° C., 5 vol. anti-solvent, 1 Hr) | Observation on outcome (ID C3, Nitromethane 50 vol., Benzotrifluoride, 60° C., 5 vol. anti-solvent, Immediate) | Observation on outcome (ID C3, Nitromethane 50 vol., Benzotrifluoride, 60° C., 10 vol. anti-solvent) | Observation on outcome (ID C3, Nitromethane 50 vol., Benzotrifluoride, 60° C., 15 vol. anti-solvent) | Observation on outcome (ID C3, Nitromethane 50 vol., Benzotrifluoride, 60° C., 20 vol. anti-solvent) | Observation on outcome (ID C4, Nitromethane 50 vol., 2-Chlorobutane, 60° C., 5 vol. anti-solvent, 1 Hr) | Observation on outcome (ID C4, Nitromethane 50 vol., 2-Chlorobutane, 60° C., 5 vol. anti-solvent, Immediate) | Observation on outcome (ID C4, Nitromethane 50 vol., 2-Chlorobutane, 60° C., 10 vol. anti-solvent) | Observation on outcome (ID C4, Nitromethane 50 vol., 2-Chlorobutane, 60° C., 15 vol. anti-solvent) | Observation on outcome (ID C4, Nitromethane 50 vol., 2-Chlorobutane, 60° C., 20 vol. anti-solvent) | Observation on outcome (ID D3, MeCN/water, 4:1 55 vol., Benzotrifluoride, 60° C., 5 vol. anti-solvent, 1 Hr) | Observation on outcome (ID D3, MeCN/water, 4:1 55 vol., Benzotrifluoride, 60° C., 5 vol. anti-solvent, Immediate) | Observation on outcome (ID D4, MeCN/water, 4:1 55 vol., 2-Chlorobutane, 60° C., 5 vol. anti-solvent, 1 Hr) | Observation on outcome (ID D4, MeCN/water, 4:1 55 vol., 2-Chlorobutane, 60° C., 5 vol. anti-solvent, Immediate)
Form A: Crystalline Form fate by XRPD (MeCN/water, 4:1 55 vol., 2-Chlorobutane) | Crystalline Form fate by XRPD (MeCN/water, 4:1 55 vol., Benzotrifluoride) | Crystalline Form fate by XRPD (MeCN/water, 4:1 55 vol., Heptane) | Crystalline Form fate by XRPD (THF/water, 4:1 10 vol., 2-Chlorobutane) | Crystalline Form fate by XRPD (THF/water, 4:1 10 vol., Benzotrifluoride)
